From ChEMBL document CHEMBL1201862, “PubChem BioAssay data set” (2004)
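These data come from cells grown in 96-well plates and exposed to compound for 48 hours at five concentrations. At the GI50, growth is halved.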 Active and inactive are the calls of the source. Cut-off read from the data, not from the text of the source: active = GI50 up to about 1.1 µM and inactive = higher.

Columns and labels:
Assay in all cases: inhibition of tumour cell growth, NCI panel, 48 h
786-0 = tested on: 786-0
BT-549 = tested on: BT-549
CAKI-1 = tested on: CAKI-1
COLO 205 = tested on: COLO 205
DU-145 = tested on: DU-145
EKVX = tested on: EKVX
HCC 2998 = tested on: HCC 2998
HCT-116 = tested on: HCT-116
HCT-15 = tested on: HCT-15
HL-60 = tested on: HL-60
HOP-92 = tested on: HOP-92
HT-29 = tested on: HT-29
M14 = tested on: M14
MCF7 = tested on: MCF7
NCI-H522 = tested on: NCI-H522
OVCAR-5 = tested on: OVCAR-5
SF-268 = tested on: SF-268
T47D = tested on: T47D
UACC-62 = tested on: UACC-62
CCRF-CEM = tested on: CCRF-CEM

Row | SMILES | GI50 (786-0) | GI50 (BT-549) | GI50 (CAKI-1) | GI50 (COLO 205) | GI50 (DU-145) | GI50 (EKVX) | GI50 (HCC 2998) | GI50 (HCT-116) | GI50 (HCT-15) [µM] | GI50 (HL-60) | GI50 (HOP-92) | GI50 (HT-29) | GI50 (M14) | GI50 (MCF7) | GI50 (NCI-H522) | GI50 (OVCAR-5) | GI50 (SF-268) | GI50 (T47D) | GI50 (UACC-62) | GI50 (CCRF-CEM)
1 | CC1OC(O[C@H]2C3C=CO[C@@H](OC4OC(CO)C(O)C(O)C4O)C3[C@@]3(COC(=O)/C=C/c4ccc(O)cc4)O[C@@H]23)C(O)C(O)C1O (some centres not stated) | > 100 µM (inactive) | > 100 µM (inactive) | > 100 µM (inactive) | > 100 µM (inactive) | > 100 µM (inactive) | > 100 µM (inactive) | > 100 µM (inactive) | > 100 µM (inactive) | > 100 | > 100 µM (inactive) | > 100 µM (inactive) | > 100 µM (inactive) | > 100 µM (inactive) | > 100 µM (inactive) | > 100 µM (inactive) | > 100 µM (inactive) | > 100 µM (inactive) | > 100 µM (inactive) | > 100 µM (inactive) | –
2 | CC(=O)/C(=C/c1ccccc1F)C(=O)c1ccccc1 | 31.7 µM (inactive) | 48.2 µM (inactive) | > 100 µM (inactive) | 60.5 µM (inactive) | 33.6 µM (inactive) | 67.1 µM (inactive) | 16.2 µM (inactive) | 27.8 µM (inactive) | 27.7 | 21.4 µM (inactive) | 91.8 µM (inactive) | 33.1 µM (inactive) | 56 µM (inactive) | 37.2 µM (inactive) | 26.5 µM (inactive) | > 100 µM (inactive) | 33.2 µM (inactive) | 24.9 µM (inactive) | 37.2 µM (inactive) | –
3 | COc1ccc(C(Nc2ncccn2)c2cc3c(cc2O)OCO3)cc1 (configuration not stated) | 18 µM (inactive) | 23 µM (inactive) | 20.3 µM (inactive) | 26.6 µM (inactive) | 20.5 µM (inactive) | 22.9 µM (inactive) | 21.7 µM (inactive) | 29.4 µM (inactive) | 18.8 | 16.4 µM (inactive) | 37.2 µM (inactive) | 24.8 µM (inactive) | 20.6 µM (inactive) | 23.5 µM (inactive) | 16.7 µM (inactive) | 31.8 µM (inactive) | 17.3 µM (inactive) | 13.3 µM (inactive) | 32.4 µM (inactive) | –
4 | Cc1ccccc1/N=C/N(C)C | 70.3 µM (inactive) | 85.7 µM (inactive) | > 100 µM (inactive) | 39.6 µM (inactive) | 44.2 µM (inactive) | 35.3 µM (inactive) | – | 33.8 µM (inactive) | > 100 | 14.1 µM (inactive) | 48.3 µM (inactive) | 34.3 µM (inactive) | 99.3 µM (inactive) | 31.5 µM (inactive) | 21.2 µM (inactive) | 72.8 µM (inactive) | 57.4 µM (inactive) | 34 µM (inactive) | 41.9 µM (inactive) | 23.2 µM (inactive)
5 | COC(=O)C1OC(SCCN)C(O)C(O)C1O (configuration not stated) | > 100 µM (inactive) | > 100 µM (inactive) | > 100 µM (inactive) | > 100 µM (inactive) | > 100 µM (inactive) | > 100 µM (inactive) | – | > 100 µM (inactive) | > 100 | > 100 µM (inactive) | > 100 µM (inactive) | > 100 µM (inactive) | > 100 µM (inactive) | > 100 µM (inactive) | > 100 µM (inactive) | > 100 µM (inactive) | > 100 µM (inactive) | > 100 µM (inactive) | > 100 µM (inactive) | > 100 µM (inactive)
6 | CC1(C)SC2C(NC(=O)Cc3ccccc3)C(=O)N2C1C(=O)O (configuration not stated) | > 100 µM (inactive) | > 100 µM (inactive) | > 100 µM (inactive) | 65.6 µM (inactive) | > 100 µM (inactive) | > 100 µM (inactive) | – | > 100 µM (inactive) | > 100 | > 100 µM (inactive) | > 100 µM (inactive) | > 100 µM (inactive) | > 100 µM (inactive) | > 100 µM (inactive) | > 100 µM (inactive) | > 100 µM (inactive) | > 100 µM (inactive) | > 100 µM (inactive) | > 100 µM (inactive) | –
7 | NCCCNCCCCN1CCOC1=O | > 100 µM (inactive) | > 100 µM (inactive) | > 100 µM (inactive) | > 100 µM (inactive) | > 100 µM (inactive) | > 100 µM (inactive) | > 100 µM (inactive) | > 100 µM (inactive) | > 100 | > 100 µM (inactive) | – | > 100 µM (inactive) | > 100 µM (inactive) | > 100 µM (inactive) | > 100 µM (inactive) | > 100 µM (inactive) | > 100 µM (inactive) | > 100 µM (inactive) | > 100 µM (inactive) | > 100 µM (inactive)
